In patent publication US20090312335A1 (priority 2005, published 2009):
pIC50: −log10 of the molar value.

Test system: HIV replication
Assay: Inhibition of acute HIV infection with HeLa P4-2 cells, single cycle infectivity ("vertical") assay
Type: cell-based
Settings: Human immunodeficiency virus 1, HeLaP4-2
Source text: The inhibitory activity of the compounds of the present invention may be measured by assays known in the art. […] Preferred compounds have IC50 values of ≦1 micromolar in this integrase assay. […] 1992, 66, 2232 for measuring the inhibition of acute HIV infection with HeLa P4-2 cells in a single cycle infectivity assay.
An assay for measuring the inhibition of acute HIV infection with HeLa P4-2 cells in a single cycle infectivity assay (alternatively referred to as the “vertical” assay) was conducted in accordance with Joyce, J. G., et al., J. Biol. Chem., 2002, 277, 45811, Hazuda, D. J. et al., Science, 2000, 287, 646, and Kimpton, J. et al, J. Virol. 1992, 66, 2232.

Structure (SMILES)	pIC50
CN1C[C@H](c2ccccc2)n2nc(-c3nnc(Cc4ccc(F)cc4)s3)c(O)c2C1=O [Example 4, (7S)-2-[5-(4-Fluorobenzyl)-1,3,4-thiadiazol-2-yl]-3-hydroxy-5-methyl-7-phenyl-6,7-dihydropyrazolo[1,5a]pyrazin-4(5H)-one]	> 4.46
CN1CCn2cc(-c3nnc(Cc4ccc(F)cc4)o3)c(O)c2C1=O [Example 2, 7-[5-(4-Fluorobenzyl)-1,3,4-oxadiazol-2-yl]-8-hydroxy-2-methyl-3,4-dihydropyrrolo[1,2-a]pyrazin-1(2H)-one]	> 4.46
CN1C[C@H](c2ccccc2)n2nc(-c3nnc(Cc4ccc(F)cc4)o3)c(O)c2C1=O [Example 5, (7S)-2-[5-(4-Fluorobenzyl)-1,3,4-oxadiazol-2-yl]-3-hydroxy-5-methyl-7-phenyl-6,7-dihydropyrazolo[1,5a]pyrazin-4(5H)-one]	> 4.46
CN1CCn2cc(-c3nnc(Cc4ccc(F)cc4)[nH]3)c(O)c2C1=O [Example 3]	> 4.46
CN1CCn2cc(-c3nnc(Cc4ccc(F)cc4)s3)c(O)c2C1=O [Example 1, 7-[5-(4-Fluorobenzyl)-1,3,4-thiadiazol-2-yl]-8-hydroxy-2-methyl-3,4-dihydropyrrolo[1,2-a]pyrazin-1(2H)-one]	> 4.46
